Measured values from patent US10195185B2, “3-(1H-imidazo[4,5-C]pyridin-2-yl)-1H-pyrazolo[4,3-B]pyridines and therapeutic uses thereof” (Samumed, LLC, priority 2015, dated 2019).

Assays:
Format in all cases: cell-based
SW480 colon cancer cells = test: Cell viability assay (CellTiter-Blue), four days; settings: Homo sapiens, 96 h; for inhibition at 10 µM: read-out: percent inhibition at 10 μM (given for EC50 of >10 μM); for EC50: CellTiter-Blue cell viability
Summary of the method: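 Four-day viability readout in SW480 cells: compound at 0.0045–10 μM (1:3 series), DMSO controls in eight replicates, CellTiter-Blue fluorescence after ~3 h. Values are regression-derived EC50s, or percent inhibition at 10 μM when EC50 exceeds 10 μM.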

[1] = system: Wnt activity (Wnt-responsive human Sp5 promoter, TCF/LEF binding sites) in SW480 colon carcinoma cells; test: Wnt activity screening assay: Sp5-Luc luciferase reporter gene in SW480 cells; settings: for EC50: 10-point dose-response from 10 μM, incubated overnight; for inhibition at 10 µM: given for EC50 of >10 μM, read-out: percent inhibition at 10 μM
Summary of the method: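 Luminescence read-out (BrightGlo) from stable Sp5-Luc SW480 cells, normalized to DMSO-only wells. Cells were treated overnight at 37° C in 1% FBS medium across a 1:3, 10-point series starting at 10 μM. EC50 from variable-slope four-parameter regression; percent inhibition at 10 μM given where EC50 >10 μM.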

[2] = system: IL-6 in human monocyte cell line (THP-1 cells); test: IL-6 inhibition in LPS-stimulated THP-1 cells (HTRF); settings: IL-6 in LPS-stimulated THP-1 cells; for EC50: HTRF; for inhibition at 10 µM: read-out: percent inhibition in brackets beside EC50 >10 μM
Summary of the method: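 Readout is the 665/620 nm HTRF ratio for secreted IL-6, normalized to DMSO wells, with EC50 from a variable-slope four-parameter fit, or % inhibition at 10 μM when above 10 μM. Cells (1% FBS, 24 h beforehand) got compound for 2 h, then LPS 500 ng/mL for 22 h at 37° C; top dose 10 μM, 0.1% DMSO.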

SMILES | inhibition at 10 µM (SW480 colon cancer cells) | EC50 (SW480 colon cancer cells) | EC50 [1] | inhibition at 10 µM [1] | EC50 [2] | inhibition at 10 µM [2]
CN(C)CCNc1cc(F)cc(-c2nccc3[nH]c(-c4n[nH]c5ccc(-c6cnccn6)nc45)nc23)c1 [Compound 792, N^1-(3-Fluoro-5-(2-(5-(pyrazin-2-yl)-1H-pyrazolo[4,3-b]pyridin-3-yl)-1H-imidazo[4,5-c]pyridin-4-yl)phenyl)-N^2,N^2-dimethylethane-1,2-diamine] | 22.1% | > 10 µM | > 10 µM | 36.2% | > 10 µM | 32.6%
CN(C)CCNc1cc(F)cc(-c2nccc3[nH]c(-c4n[nH]c5ccc(-c6cncc(OCCN7CCCC7)c6)nc45)nc23)c1 [Compound 786, N^1-(3-Fluoro-5-(2-(5-(5-(2-(pyrrolidin-1-yl)ethoxy)pyridin-3-yl)-1H-pyrazolo[4,3-b]pyridin-3-yl)-1H-imidazo[4,5-c]pyridin-4-yl)-5phenyl)-N^2,N^2-dimethylethane-1,2-diamine] | 15.9% | > 10 µM | 4.41 µM |  | 7.22 µM | 
COc1cccc(-c2nccc3[nH]c(-c4n[nH]c5ccc(-c6cncc(OC7CCNCC7)c6)nc45)nc23)c1 [Compound 1025, 3-(4-(3-Methoxyphenyl)-1H-imidazo[4,5-c]pyridin-2-yl)-5-(5-(piperidin-4-yloxy)pyridin-3-yl)-1H-pyrazolo[4,3-b]pyridine] | 12.7% | > 10 µM | > 10 µM | 15.1% | > 10 µM | 26.9%
CN(C)c1cncc(-c2ccc3[nH]nc(-c4nc5c(N6CCCCC6)nccc5[nH]4)c3n2)c1 [Compound 175, N,N-Dimethyl-5-(3-(4-(piperidin-1-yl)-1H-imidazo[4,5-c]pyridin-2-yl)-1H-pyrazolo [4,3-b]pyridin-5-yl)pyridin-3-amine] |  | 1.99 µM | 3.89 µM |  | > 10 µM | 0%
CN(C)CC(=O)Nc1cncc(-c2ccc3[nH]nc(-c4nc5c(-c6cccc(F)c6)nccc5[nH]4)c3n2)c1 [Compound 969, 2-(Dimethylamino)-N-(5-(3-(4-(3-fluorophenyl)-1H-imidazo[4,5-c]pyridin-2-yl)-1H-pyrazolo[4,3-b]pyridin-5-yl)pyridin-3-yl)acetamide] |  | 1.63 µM | 3.08 µM |  | > 10 µM | 31.8%
c1cncc(-c2ccc3[nH]nc(-c4nc5c(-c6cccnc6)nccc5[nH]4)c3n2)c1 [Compound 88, 5-(Pyridin-3-yl)-3-(4-(pyridin-3-yl)-1H-imidazo[4,5-c]pyridin-2-yl)-1H-pyrazolo[4,3-b]pyridine] | 8.5% | > 10 µM | > 10 µM | 34.4% | > 10 µM | 20.4%
COc1cccc(-c2nccc3[nH]c(-c4n[nH]c5ccc(-c6cn[nH]c6)nc45)nc23)c1 [Compound 1020, 3-(4-(3-Methoxyphenyl)-1H-imidazo[4,5-c]pyridin-2-yl)-5-(1H-pyrazol-4-yl)-1H-pyrazolo[4,3-b]pyridine] | 6.4% | > 10 µM | > 10 µM | 5.7% | > 10 µM | 0%
COc1cccc(-c2nccc3[nH]c(-c4n[nH]c5ccc(-c6cccnc6)nc45)nc23)c1 [Compound 994, 3-(4-(3-Methoxyphenyl)-1H-imidazo[4,5-c]pyridin-2-yl)-5-(pyridin-3-yl)-1H-pyrazolo[4,3-b]pyridine] | 0% | > 10 µM | 0.421 µM |  | > 10 µM | 18.6%
O=C(Cc1ccccc1)Nc1cncc(-c2ccc3[nH]nc(-c4nc5c(-c6ccncc6)nccc5[nH]4)c3n2)c1 [Compound 122, 2-phenyl-N-(5-(3-(4-(pyridin-4-yl)-1H-imidazo[4,5-c]pyridin-2-yl)-1H-pyrazolo[4,3-b]pyridin-5-yl)pyridin-3-yl)acetamide] | 3.2% | > 10 µM | > 10 µM | 1% | 1.24 µM | 
CCCC(=O)Nc1cncc(-c2ccc3[nH]nc(-c4nc5c(-c6ccncc6)nccc5[nH]4)c3n2)c1 [Compound 129, N-(5-(3-(4-(Pyridin-4-yl)-1H-imidazo[4,5-c]pyridin-2-yl)-1H-pyrazolo[4,3-b]pyridin-5-yl)pyridin-3-yl)butyramide] | 0% | > 10 µM | > 10 µM | 2.2% | > 10 µM | 12.5%
O=C(Nc1cncc(-c2ccc3[nH]nc(-c4nc5c(-c6ccc(Cl)s6)nccc5[nH]4)c3n2)c1)C1CCC1 [Compound 1056, N-(5-(3-(4-(5-Chlorothiophen-2-yl)-1H-imidazo[4,5-c]pyridin-2-yl)-1H-pyrazolo[4,3-b]pyridin-5-yl)pyridin-3-yl)cyclobutanecarboxamide] |  | 2.15 µM | 0.897 µM |  | > 10 µM | 0%
CC(C)Nc1cncc(-c2ccc3[nH]nc(-c4nc5c(-c6cccnc6)nccc5[nH]4)c3n2)c1 [Compound 96, N-Isopropyl-5-(3-(4-(pyridin-3-yl)-1H-imidazo[4,5-c]pyridin-2-yl)-1H-pyrazolo[4,3-b]pyridin-5-yl)pyridin-3-amine] |  | 1.98 µM | 0.994 µM |  | 2.75 µM | 
Cc1ccc(-c2nccc3[nH]c(-c4n[nH]c5ccc(C6=CCNCC6)nc45)nc23)s1 [Compound 730, 3-(4-(5-Methylthiophen-2-yl)-1H-imidazo[4,5-c]pyridin-2-yl)-5-(1,2,3,6-tetrahydropyridin-4-yl)-1H-pyrazolo[4,3-b]pyridine] |  | 5.26 µM | > 10 µM | 43.4% | > 10 µM | 29.5%
Cc1ccncc1-c1ccc2[nH]nc(-c3nc4c(-c5ccncc5)nccc4[nH]3)c2n1 [Compound 117, 5-(4-Methylpyridin-3-yl)-3-(4-(pyridin-4-yl)-1H-imidazo[4,5-c]pyridin-2-yl)-1H-pyrazolo[4,3-b]pyridine] | 19.6% | > 10 µM | > 10 µM | 28% | > 10 µM | 33.1%
CCNCc1cncc(-c2ccc3[nH]nc(-c4nc5c(-c6ccccn6)nccc5[nH]4)c3n2)c1 [Compound 146, N-((5-(3-(4-(Pyridin-2-yl)-1H-imidazo[4,5-c]pyridin-2-yl)-1H-pyrazolo[4,3-b]pyridin-5-yl)pyridin-3-yl)methyl)ethanamine] |  | 4.76 µM | > 10 µM | 35.5% | > 10 µM | 6.7%
O=C(Nc1cncc(-c2ccc3[nH]nc(-c4nc5c(-c6ccccn6)nccc5[nH]4)c3n2)c1)c1ccccc1 [Compound 151, N-(5-(3-(4-(Pyridin-2-yl)-1H-imidazo[4,5-c]pyridin-2-yl)-1H-pyrazolo[4,3-b]pyridin-5-yl)pyridin-3-yl)benzamide] | 1.6% | > 10 µM | > 10 µM | 9.9% | > 10 µM | 28.9%
Fc1ccccc1-c1nccc2[nH]c(-c3n[nH]c4ccc(-c5cncc(CNCC6CCCC6)c5)nc34)nc12 [Compound 81, 1-Cyclopentyl-N-((5-(3-(4-(2-fluorophenyl)-1H-imidazo[4,5-c]pyridin-2-yl)-1H-pyrazolo[4,3-b]pyridin-5-yl)pyridin-3-yl)methyl)methanamine] |  | 1.08 µM | 1.11 µM |  | > 10 µM | 54.6%
O=C(Cc1ccccc1)Nc1cncc(-c2ccc3[nH]nc(-c4nc5cnccc5[nH]4)c3n2)c1 [Compound 262, N-(5-(3-(1H-imidazo[4,5-c]pyridin-2-yl)-1H-pyrazolo[4,3-b]pyridin-5-yl)pyridin-3-yl)-2-phenylacetamide] | 2.2% | > 10 µM | > 10 µM | 12.9% | > 10 µM | 35.4%
CCC(=O)Nc1cncc(-c2ccc3[nH]nc(-c4nc5c(-c6cccs6)nccc5[nH]4)c3n2)c1 [Compound 337, N-(5-(3-(4-(Thiophen-2-yl)-1H-imidazo[4,5-c]pyridin-2-yl)-1H-pyrazolo [4,3-b]pyridin-5-yl)pyridin-3-yl)propionamide] | 39.4% | > 10 µM | > 10 µM | 31.8% | > 10 µM | 0%
c1cc2[nH]c(-c3n[nH]c4ccc(C5CCNCC5)nc34)nc2c(-c2ccc3c(c2)OCO3)n1 [Compound 1108, 3-(4-(Benzo[d][1,3]dioxol-5-yl)-1H-imidazo[4,5-c]pyridin-2-yl)-5-(piperidin-4-yl)-1H-pyrazolo[4,3-b]pyridine] | 3.8% | > 10 µM | > 10 µM | 11% | > 10 µM | 22.8%
